Reference: paper PMC9450014, “The evaluation of ADME and pharmacokinetic properties of decoquinate derivatives for the treatment of malaria” (Frontiers in Pharmacology, 2022)
Like-named read-outs stand apart in the source and are kept apart here. Values belong to the molecule of their own block, whether it stands above or below them.

Assays:
[1] = In vivo pharmacokinetics, oral administration; design: species or system C57BL/6 mice; settings: DQ quantified in whole blood after po 20 mg/kg of the O-carbamate, mice; for AUC0-∞ of DQ / Cmax: 20 mg/kg; for Cmax: read-out: Cmax of DQ
Procedure: Healthy C57BL/6 mice each weighing approximately 25 g were maintained at the University of Cape Town animal facility. Mice were housed in 27 × 21 × 28 cm cages (n = 3) under controlled environmental conditions at 22 ± 2°C, humidity of 55 ± 15% and a 12-hour light/dark cycle. Food and water were available ad libitum. Mice were acclimatised to the experimental environment for 4–5 days prior to initiating the experiments. RMB005, −059 and −060 were prepared in an aqueous solution of HPMC containing 0.2% Tween 80. The weighed compound was sonicated and vortexed to obtain a homogenous suspension. Oral dosing of 20 mg/kg was achieved via oral gavage. The total volume per administration was 200 μL. Blood samples were collected post-dose in lithium heparin microvials via tail bleeding at predetermined intervals at 0.5, 1, 3, 5, 8, 10, and 24 h. Samples were gently vortexed and stored at −80°C until analysis. A quantitative LC-MS/MS assay was used to determine whole-blood concentrations of RMB005, −059 and −060. Whole blood samples (20 μL) were treated with 100 μL ice cold acetonitrile containing the compound RMB073 used previously for determination of whole blood concentrations in analysis of TB-active compounds, as internal standard (200 ng/ml) ([Tanner et al., 2019]). The mixture was vortexed vigorously for 1 min, and 5 µL of the supernatant were injected onto the analytical column following centrifugation (5,590 g for 5 min). Gradient elution was carried out using a Gemini NX-C18 analytical column (5 μm, 2.1 mm × 50 mm). The aqueous mobile phase consisted of 5 mm ammonium acetate with 0.1% acetic acid in deionised water, while the organic phase consisted of 0.1% acetic acid in acetonitrile. A Shimadzu HPLC and reverse phase Gemini NX-C18 column coupled to an AB Sciex 3200 Q TRAP MS was operated at unit resolution in the multiple reaction monitoring (MRM) mode. […] The calibration standards ranged from 2 ng/mL to 3,000 ng/mL for RMB005, and 2 ng/mL to 4,000 ng/mL for RMB059, −060 and DQ. Drug concentration versus time plots for each compound were used to determine maximal drug concentration C max, time T max to reach C max, elimination half-life t 1/2 and the area under the concentration-time curve from time zero to infinity, AUC0-inf. From these values the following PK parameters—clearance CL, volume of distribution (Vd) and oral bioavailability (BA) were determined using the non-compartmental analysis Microsoft Excel Add-In PKSolver ([Zhang et al., 2010]).

[2] = In vivo pharmacokinetics, intravenous administration; design: species or system C57BL/6 mice; settings: mice, 5 mg/kg per table footnote, 5 mg/kg; for t1/2 of DQ: DQ quantified in whole blood after iv dosing of the O-carbamate (RMB059 or RMB060); for CL of DQ / Vd of DQ: DQ quantified in whole blood after iv dosing of the O-carbamate
Procedure: Healthy C57BL/6 mice each weighing approximately 25 g were maintained at the University of Cape Town animal facility. Mice were housed in 27 × 21 × 28 cm cages (n = 3) under controlled environmental conditions at 22 ± 2°C, humidity of 55 ± 15% and a 12-hour light/dark cycle. Food and water were available ad libitum. Mice were acclimatised to the experimental environment for 4–5 days prior to initiating the experiments. […] The total volume of administration was 80 μL. Blood samples were collected post-dose in lithium heparin microvials via tail bleeding at predetermined intervals at 0.16, 0.5, 1, 3, 5, 8, 10, and 24 h. Samples were gently vortexed and stored at −80°C until analysis. A quantitative LC-MS/MS assay was used to determine whole-blood concentrations of RMB005, −059 and −060. Whole blood samples (20 μL) were treated with 100 μL ice cold acetonitrile containing the compound RMB073 used previously for determination of whole blood concentrations in analysis of TB-active compounds, as internal standard (200 ng/ml) ([Tanner et al., 2019]). The mixture was vortexed vigorously for 1 min, and 5 µL of the supernatant were injected onto the analytical column following centrifugation (5,590 g for 5 min). Gradient elution was carried out using a Gemini NX-C18 analytical column (5 μm, 2.1 mm × 50 mm). The aqueous mobile phase consisted of 5 mm ammonium acetate with 0.1% acetic acid in deionised water, while the organic phase consisted of 0.1% acetic acid in acetonitrile. A Shimadzu HPLC and reverse phase Gemini NX-C18 column coupled to an AB Sciex 3200 Q TRAP MS was operated at unit resolution in the multiple reaction monitoring (MRM) mode. […] The calibration standards ranged from 2 ng/mL to 3,000 ng/mL for RMB005, and 2 ng/mL to 4,000 ng/mL for RMB059, −060 and DQ. Drug concentration versus time plots for each compound were used to determine maximal drug concentration C max, time T max to reach C max, elimination half-life t 1/2 and the area under the concentration-time curve from time zero to infinity, AUC0-inf. From these values the following PK parameters—clearance CL, volume of distribution (Vd) and oral bioavailability (BA) were determined using the non-compartmental analysis Microsoft Excel Add-In PKSolver ([Zhang et al., 2010]).

[3] = Metabolic stability in mouse liver microsomes; format: in vitro ADME
Procedure: (§1) A 5-point metabolic stability assay in human and mouse liver microsomes were performed in duplicate in 96-well plates. Stock solution of RMB005, −059 and 060 prepared in DMSO were individually incubated at 37°C in mouse and pooled human liver microsomes (0.4 mg/mL). An aliquot was removed at 0 min and quenched with ice cold acetonitrile containing the internal standard carbamazepine (0.1 μM). The cofactor NADPH was added, and the reactions were subsequently stopped at time points 5, 10, 30, and 60 min by removal of an aliquot and quenching with ice cold acetonitrile containing the internal standard. The supernatant of all samples were analysed via LC-MS/MS analysis (reverse phase Gemini NX-C18 column and Shimadzu HPLC and AB Sciex 3200 Q TRAP MS). Calculation of in vitro t1/2, intrinsic clearance rate (CLint) and predicted in vivo clearance (CLH) was carried out using the following equations ([Obach 1999]). CLintClint= 0.693/t1/2(min) ×Volume of incubation (μL)/microsomal protein (μg) Where t1/2 is calculated in minutes.
(§2) Predicted in vivo CLH CLH=Q × fu(plasma)×CLint/fu(mic)/Q+ fu(plasma)× CLint/fu(mic) Where Q is the hepatic blood flow of mouse (90 mL/min/kg) or human (20.7 mL/min/kg). Fu(plasma) is the unbound drug fraction in the plasma and fu(mic) is the unbound fraction in the microsomes.
(§3) The equation below was used in the case of RMB059 and -060, where protein-binding data were not available. CLH=Q × CLint/Q+ CLint

[4] = system: multidrug resistant Pf W2; design: method as in Beteck et al., 2018; settings: ref Beteck et al., 2018; read-out: Activity against multidrug resistant Pf W2; cited from earlier work
[5] = Lipophilicity, 1-octanol/phosphate buffer pH 7.4 (LogD7.4); format: physicochemical
Procedure: Stock solutions ([…]) of compounds were diluted to 100 μM in 96-well deep-well plate containing 1-octanol and phosphate buffer at pH 7.4. The plate was agitated on an orbital shaker at 750 rpm for 2 h. The organic and buffer layers of each well were transferred separately to a new analysis plate. The samples were analysed with the HPLC-diode array detection as described for kinetic solubility. Samples from both layers were analysed to determine LogD7.4 values.

[6] = Passive permeability, parallel artificial membrane permeation assay (PAMPA); format: in vitro ADME; settings: donor pH 6.5, acceptor pH 7.4, 4 h, read-out: Permeability (LogPapp) (converted)
Procedure: A parallel artificial membrane permeation assay (PAMPA) was used to assess the passive permeability of compounds with a 96-well MultiScreen filter plate ([…] pore size, Millipore). The filter plate was precoated with 5% hexadecane in hexane. Stock solutions of compounds were diluted to 1 mM in a donor buffer (pH 6.5). Lucifer yellow was added to the apical wells of the precoated MultiScreen plate containing compound donor solution. The donor buffer solutions were spiked with each test compound (1 mM). The acceptor-buffer solution was prepared by adding 10 μL DMSO to 990 μL acceptor buffer (pH 7.4) and 250 μL were added to the basolateral (acceptor) wells. The donor plate was carefully inserted into the acceptor plate and incubated at room temperature for 4 h. After the incubation period, 50 μL of samples from the acceptor plate were transferred to a round bottom 96-well plate, together with 30 μL of donor buffer for matrix matching. Theoretical equilibrium samples for each test compound were prepared by adding 150 μL of donor solutions to 250 μL acceptor solutions and left at room temperature. These theoretical equilibrium samples represent complete transfer of the compound into the donor well. For the theoretical equilibrium samples, 80 μL were added to the analysis plate. Lastly, 160 μL of the internal standard carbamazepine (0.1 μM) was added to all acceptor and equilibrium samples. A portion of the sample containing Lucifer yellow was analyzed on a BioRad iMark^TM Microplate Absorbance Reader (BioRad, Hercules, CA, United States; excitation 490 nm, emission 510–570 nm) to determine that P app was within the acceptable range (<50 nm/s). Samples were analysed using reverse phase Gemini NX-C18 column (5 μM, 2.1 mm × 50 mm) with a Shimadzu HPLC coupled with an AB Sciex 3200 Q TRAP MS). The Papp for each compound was determined using. C=VD × VA/(VD+VA) ×A×t where VA = volume of donor compartment (0.15 cm^3), VD = volume of acceptor compartment (0.25 cm^3), A = accessible filter area (0.24 cm^2) and t = incubation time (14,400 s). […]

[7] = Metabolic stability in human liver microsomes; format: in vitro ADME
Procedure: as §1, §2, §3

[8] = Kinetic solubility in PBS (HPLC-DAD); format: physicochemical; settings: phosphate buffer saline (PBS); for solubility kinetic at 2 h: aqueous buffer, kinetic from dmso stock
Procedure: Stock concentrations of test samples (10 mM) were prepared in DMSO and diluted to a final concentration of […] in phosphate buffer saline (PBS) solutions at pH 2, 6.5, and 7.4 in flat-bottomed 96-well plates. A three-point calibration curve of each control and test compound was prepared from stock solutions in DMSO. Plates were agitated on an orbital shaker at room temperature for 2 h at 200 rpm and subsequently analysed using a reverse phase Gemini NX-C18 column (5 μM, 2.1 mm × 50 mm) with an Agilent 1,200 Rapid Resolution HPLC and diode array detection.

Pf NF54 = settings: ref Beteck et al., 2018; read-out: IC50 against Pf NF54; cited from earlier work
Plasma stability = format: in vitro ADME; settings: human plasma
Procedure: Stock solutions of compounds in DMSO were used to spike pooled human plasma. Samples were transferred in duplicate to 6 different wells of a 96-deep well plate. An aliquot of each sample was immediately quenched with ice cold acetonitrile containing the internal standard carbamazepine (0.1 μM), after which the plate was incubated in a water bath (37°C for 1 h). Aliquots of samples were removed at 5, 15, 40, 60, and 180 min and quenched with ice cold acetonitrile. After samples of the final time point were precipitated, the supernatant was transferred to a round bottom 96-well plate for analysis by LC-MS/MS using a reverse phase Gemini NX-C18 column (5 μM, 2.1 mm × 50 mm) with a Shimadzu HPLC coupled with an AB Sciex 3200 Q TRAP MS). The peak area ratios were used to calculate the amount of parent compound remaining and t1/2 in plasma, using the following equations.
% Parent remaining % Parent= Normalised peak area of sample at timepoint/Normalised peak area of sample at t=0 x 100
Predicted t1/2 t1/2= −0.693/λ Where λ is the slope of the Ln % parent remaining vs. time curve.

[9] = system: multidrug resistant Pf K1; design: method as in Beteck et al., 2018; settings: ref Beteck et al., 2018; read-out: IC50 against multidrug resistant Pf K1; cited from earlier work
[10] = *protein binding data not included

Tmax of DQ [1]: 1.67 ± 0.67 h | AUC0-∞ of DQ [1]: 101 ± 44 µmol·min/L | Cmax [1]: 230 ± 50 nM | t1/2 of DQ [2]: 4.79 ± 1.66 h | CL of DQ [2]: 19.40 ± 3.14 mL/min/kg | Vd of DQ [2]: 8.00 ± 2.96 L/kg
Compound: CCCCCCCCCCOc1cc2c(O)c(C(=O)OCC)cnc2cc1OCC [DQ from RMB059]

Tmax of DQ [1]: 1.67 ± 0.67 h | AUC0-∞ of DQ [1]: 63 ± 9 µmol·min/L | Cmax [1]: 110 ± 10 nM | t1/2 of DQ [2]: 4.66 ± 1.16 h | CL of DQ [2]: 21.50 ± 3.38 mL/min/kg | Vd of DQ [2]: 8.88 ± 2.87 L/kg
Compound: CCCCCCCCCCOc1cc2c(O)c(C(=O)OCC)cnc2cc1OCC [DQ from RMB060]

Estimated in vivo CLH MLM [3, 10]: 75.2* mL/min/kg | half-life ([3]; mouse liver microsomes, NADPH, read-out: Degradation half-life MLM): 0.277 h | CLint scaled ([3]; mouse, liver microsomes, calculated from t1/2 in MLM, read-out: In vitro CLint MLM): 457 mL/min/kg | logD at 2 h [5]: 2.9 | Papp at 4 h, 1 mM [6]: 1.58 ×10⁻⁶ cm/s | Estimated in vivo CLH HLM [7, 10]: 19.7* mL/min/kg | CLint scaled ([7]; human, pooled liver microsomes, calculated from t1/2 in HLM, read-out: In vitro CLint HLM): 410 mL/min/kg | half-life ([7]; pooled liver microsomes, human liver microsomes, NADPH, read-out: Degradation half-life HLM): 0.177 h | solubility kinetic at 2 h ([8]; PBS pH 2, read-out: Kinetic solubility pH 2): < 5 µM | solubility kinetic at 2 h ([8]; PBS pH 6.5, read-out: Kinetic solubility pH 6.5): < 5 µM | solubility kinetic at 2 h ([8]; PBS pH 7.4, read-out: Kinetic solubility pH 7.4): < 5 µM | solubility at 2 h ([8]; all pH levels tested (pH 2, 6.5, 7.4)): < 5 µM | Plasma stability (in words) (Plasma stability): high degree of lability | half-life (Plasma stability; pooled plasma, 37°C): 1.1 h
Compound: CCCCCCCCCCOc1cc2c(OC(=O)N3CCOCC3)c(C(=O)OCC)cnc2cc1OCC [RMB059]
IC50 [4]: 5.7 nM | IC50 (Pf NF54): 6.8 nM | IC50 [9]: 14.4 nM
